In one assay the test system is L. infantum. As to the kind of experiment: Clinical evaluation (clinical score) in open-label randomized comparative clinical field trial of canine leishmaniosis. Format: in vivo, dogs. An excerpt:
This was an open-label randomized comparative clinical field trial conducted in the north of Algeria. Prevalence observed in this area was 36%. Client-owned dogs of any age, breed, or gender were enrolled and 11 veterinary practitioners were responsible of the monitoring. All dogs had previously been naturally infected by L. infantum and presented clinical signs. The dogs were fully monitored and treatment could be changed to antimoniate meglumine/allopurinol at the owner's request if clinical impairment was noticed. A total of 187 dogs were enrolled for CanL. Among them, 42 adult sick dogs (30 males and 12 females), 3.8 years average age (min=1, max=11 years), weighing between 3-37 kg and of different breeds (8 german shepherd, 1 belgian shepherd malinois, 2 sloughy, 5 pointers, 6 braques, 1 bagnole, 1 americain staff, 1 beagle and 17 mixed breeds), were selected for this study.
Main inclusion criteria were: i) Dogs with at least two clinical manifestations related to CanL as detailed in the following Table 1) and ii) Dogs with positive serology for Leishmania by the immunochromatographic based qualitative rapid test WITNESS® Leishmania (Zoetis, France) and/or the quantitative indirect immunofluorescence antibody test (IFAT≥ 100) or positive PCR result obtained in blood.
Efficacy criteria were determined by reduction in clinical scores (i.e. the sum of clinical scores was lower than before treatment), in decreasing of parasite DNA and Leishmaniaspecific antibody titers. The score was defined according to the severity of each clinical sign and the final value was obtained from the sum of all the values (Table 1). Quantitative parasite load was estimated through qPCR and the antibody titers through quantitative IFAT. Table 1: Clinical signs related to CanL defined to evaluate the clinical scores of dogs.
Each manifestation was assigned a severity score ranging from 0 to 3, where 0 = none, 1 = mild, 2 = moderate, and 3 = severe (maximum total clinical score = 21). Mortality related to CanL was assessed by the highest score (22).
(§1) Selected dogs were included randomly to one of the two treatment arms. Dogs (N=26) in the Group 1: (positive control) received 100 mg/kg Antimoniate of meglumine (Glucantime®, Merial, France) daily for 28 days subcutaneously, and 30 mg/kg allopurinol (Allopurinol Arraw® 300 mg, France) orally daily for one month. Dogs (N=16) in the Group 2: (chemotherapy of the invention) received 25 mg/kg artesunate (Asu-Denk®; Denk Pharma, Germany) orally for 6 days. […] Dogs were followed up for 180 days (Figure 1).
(§2) Animals were checked on days D0, D+30, D+90 and D+180 after the treatment had started and blood samples were collected each time-points. Clinical signs and lesions associated with leishmaniosis, infection status (parasite load-qPCR and serological) were evaluated and monitored in these points.
The efficacy of treatments was assessed at each time-point based on the clinical response to treatment (evolution of clinical scores over time and the percentage reduction of the total clinical score). For each dog, the same veterinarian conducted all clinical evaluations to maintain consistency. Mortality due to CanL constitutes the higher score (22). The percentage of reduction was calculated according to the formula: Percentage reduction of CS % = (CSatD+XX−CSatD+0)/CS at D + 0) × 100 [formula]

In a further assay the test system is L. infantum DNA. Put plainly: Parasite load-qPCR in blood (kDNA) in the field trial. Format: in vivo, dogs. Set-up: Parasitemia (% of reduction): concentration or dose not given beside the values. The conditions noted are these: for Parasitemia No. Leish/mL of blood / Parasitemia (% of reduction): individual dogs (one table line per dog); for Parasitemia No. Leish/mL of blood: artesunate 25 mg/kg orally 6 days, Glucantime 100 mg/kg s.c. 28 days + allopurinol 30 mg/kg orally one month. The method, then:
as §1, §2
Blood samples collected in each time-point were analyzed for quantification of parasitic load by qPCR using primers and probe for detection and quantification of L. infantum DNA, targeting a conserved region of the kinetoplast minicircle DNA (kDNA) (several 1000's-fold repeated sequence). Prior to DNA extraction, 200 µL of blood were digested with proteinase K and incubated at +56°C overnight. Extraction was performed using a commercial DNA extraction kit (QIAamp DNA Mini Kit®, [Qiagen, Courtaboeuf, France]) and performed on BIOROBOT EZ1 (Qiagen, Qiagen, Courtaboeuf, France) per the manufacturer's instructions. DNA was eluted in 200 µl of distilled water and stored at -20°C until analysis. qPCR was prepared and performed as follows: 20 µL final volume containing 10 µL of Eurogentec Master Mix Roche (Eurogentec, Liège, Belgium), […] of each primer and the probe, 0.5 µL UDG, 3 µL of distilled water DNAse and RNAse free, and 5 µl of the DNA sample, was amplified in a CFX96 Real-Time system (BioRad Laboratories, Foster City, CA, USA) using the following thermal profile: one incubation step at 50°C for two minutes and an initial denaturation step at 95°C for three minutes, followed by 40 cycles of denaturation at 95°C for 15 seconds and annealing extension at 60°C for 30 seconds. Quantification was based on a standard curve which was 8 folds-serial dilution of plasmid of 10^8 copy of DNA/mL from the kDNA region, equivalent of 10000 parasites/mL; 5 µl of serial dilutions ranging from 10000 to 0.001 parasites/mL, was introduced into reaction tubes. Results were expressed as the number of Leishmania parasites present in 1 ml of blood, taking in account the volume (200 µl of blood) and the elution (200 µl) introduced during the extraction process.
On the technique in general: In qPCR the cycle at which signal appears reflects the starting amount.

Assay [1] concerns anti-L. infantum specific immunoglobulins G (IgG). As to the kind of experiment: Serological monitoring by quantitative IFAT in the field trial. Particulars: for Leishmania-antibody titers (mean ± SD), IFAT: artesunate 25 mg/kg orally 6 days, Glucantime 100 mg/kg s.c. 28 days + allopurinol 30 mg/kg orally one month. Format: in vivo, dogs. The method, then: as §1, §2
At day 0, the immunochromatographic based qualitative rapid test WITNESS® Leishmania (Zoetis, France) was performed according to the manufacturer's instructions using one drop (10 µL) of whole blood from each dog directly after sampling. Quantitative IFAT for the titration of anti-L. infantum specific immunoglobulins G (IgG) was performed on sera for the monitoring as described previously. Briefly, plate wells were sensitized by 20 µL of L. infantum commercial antigens (Zoetis, France). After dilution to 1:50, 20 µl of every serum dilution was applied per well and plates were incubated for 30 min at 37 °C. Plates were washed twice with PBS for 5 min and once with distilled water. 20 µL of IgG anti-dog conjugated with fluorescein isothiacyanate (FITC) (Sigma-Aldrich, St Louis, MO, USA) were added into each well. The plates were incubated for 30 min at 37 °C in the dark. After another washing step, some drops of mounting medium were added on the cover slips and reading was performed. To avoid errors of observation, all samples were examined by two different investigators and positive and negative controls were added in each plate. All samples negative at 1:50 were considered negative. Positive results were further investigated using a […] serial dilution IFAT at 1:100 to 1:1600. At this point, the samples were classified as a high positive for L. infantum (> 1:1600).

The subject of assay [2] is L. infantum life stage forms (promastigote and amastigote). Particulars: Cortes et al., 2015; cited from earlier work.
Setting [3] is: D+30, artesunate 25 mg/kg orally 6 days (n=15), Glucantime 100 mg/kg s.c. 28 days + allopurinol 30 mg/kg orally one month (n=26).
The mark [4] stands for this setting: D+30, mortality related to CanL included, artesunate 25 mg/kg orally 6 days (n=15), Glucantime 100 mg/kg s.c. 28 days + allopurinol 30 mg/kg orally one month (n=26).
Where [5] appears, read: D+90, artesunate 25 mg/kg orally 6 days (n=15), Glucantime 100 mg/kg s.c. 28 days + allopurinol 30 mg/kg orally one month (n=23).
Where [6] appears, read: D+90, mortality related to CanL included, artesunate 25 mg/kg orally 6 days (n=15), Glucantime 100 mg/kg s.c. 28 days + allopurinol 30 mg/kg orally one month (n=23).
The mark [7] stands for this setting: D+180, artesunate 25 mg/kg orally 6 days (n=15), Glucantime 100 mg/kg s.c. 28 days + allopurinol 30 mg/kg orally one month (n=22).
Where [8] appears, read: D+180, mortality related to CanL included, artesunate 25 mg/kg orally 6 days (n=15), Glucantime 100 mg/kg s.c. 28 days + allopurinol 30 mg/kg orally one month (n=22).

The structures appear in SMILES notation. Where “and” joins values, the source holds several entries; their conditions need not be identical. Identical values can stand only once.

As for `C[C@H]1[C@H](OC(=O)CCC(=O)O)O[C@@H]2O[C@@]3(C)CC[C@H]4[C@H](C)CC[C@@H]1[C@@]24OO3` [Artesunate], in the assay on L. infantum (D+30, D+90 and D+180, p<0.0001 (Mann-Whitney)), the “mean percentage of reduction of clinical score, comparison between the two groups” value is “More improvement”. Further, the “PARTIAL AMELIORATION (%)” value is recorded as 80% in the assay on L. infantum (setting [3]); 53.33% in the assay with L. infantum (setting [5]); 46.66% in the assay with L. infantum (D+180 (6 months following up), artesunate 25 mg/kg orally 6 days (n=15), Glucantime 100 mg/kg s.c. 28 days + allopurinol 30 mg/kg orally one month (n=22)). The figures for the “PARTIAL AMELIORATION, number of dogs” value in the assay on L. infantum (setting [3]), in the assay on L. infantum (setting [5]) and in the assay with L. infantum (setting [7]) were 12, 8 and 7, respectively. In addition, the “AGGRAVATION (%)” value in the assay with L. infantum (setting [4]) and with L. infantum (setting [6]) was 20% in each case. Moreover, the “AGGRAVATION, number of dogs” value in the assay with L. infantum (setting [4]) turned out to be 3; with L. infantum (setting [6]), 3; with L. infantum (setting [8]), 4. The “COMPLETE AMELIORATION (%)” value in the assay on L. infantum (setting [5]) is given as 20%. Also, the “COMPLETE AMELIORATION, number of dogs” value with L. infantum (setting [5]) came to 3; in the assay with L. infantum (setting [7]), 4. In addition, the “NO CHANGE (%)” value in the assay with L. infantum (setting [5]) is 6.66%. For the same molecule, the “NO CHANGE, number of dogs” value in the assay on L. infantum (setting [5]) was determined as 1. In addition, the “COMPLETE AMELIORATION (%) (complete recovery, CS of 0)” value with L. infantum (setting [7]) is on record as “approximately 26.66%”; with L. infantum (D+180, artesunate 25 mg/kg orally 6 days (n=15), Glucantime 100 mg/kg s.c. 28 days + allopurinol 30 mg/kg orally one month (n=22), listed as ARTESUNATE) it was 26.66%. The “AGGRAVATION (%) (clinical aggravation rates)” value in the assay on L. infantum (setting [8]) was found to be 26.66%. Moreover, in the assay with L. infantum (D+180, part of the aggravation rate, artesunate 2/15, control group 4/22), the mortality (in general, the share of the test organisms that died) was found to be 13.33%. The “dogs died with increasing in the clinical signs related to CanL” value in the assay with L. infantum (between D+60 after the beginning of treatments and the visit D+90) is “two”. Moreover, the “Parasitemia No. Leish/mL of blood” value in the assay on L. infantum DNA (D+30) was 0 No. Leish/mL of blood and 14 No. Leish/mL of blood and 44 No. Leish/mL of blood and 1,7 No. Leish/mL of blood and 0,17 No. Leish/mL of blood; in the assay with L. infantum DNA (D+ 90), 0 No. Leish/mL of blood (3×) and 29 No. Leish/mL of blood; with L. infantum DNA (D+ 180) it was 0 No. Leish/mL of blood. In addition, the “Parasitemia (% of reduction)” value in the assay with L. infantum DNA (D+30 versus D0) was 100% and 19,54% and 63,93% and 99,27% and 98,45%; with L. infantum DNA (D+ 90 versus D0) it was 100% (3×) and -66,67%; with L. infantum DNA (D+ 180 versus D0), 100%. Also, in the assay with L. infantum DNA (qPCR in blood, over-time after treatment, dogs negative / dogs positive at D0), the “initially PCR-positive dogs that turned out to be Leishmania-negative” value is given as 5/5. The “Leishmania-antibody titers (mean ± SD), IFAT” value worked out at 128.57 ± 212.78 in assay [1] (D+30) and 37.50 ± 60.77 in assay [1] (D+ 180). Besides, the “dogs that became seronegative” value in assay [1] (D+ 30, artesunate 7/14, Glucantime/allopurinol 4/26) was 50%. Besides, the “dogs with diminution in antibody titers” value in assay [1] (D+ 30, artesunate 11/14, Glucantime/allopurinol 15/26) is on record as 78.57%. Further, the dogs turned seronegative in assay [1] (end of the follow-up, Group 1 5/17, Group 2 7/12, P-Value 0.227) was found to be 58.33%. Besides, the “percentage of reduction in antibody titers, comparison of groups” value in assay [1] (end of the study, P <0.0001) was “higher percentage of reduction”. The “in vitro activity against L. infantum life stage forms (promastigote and amastigote)” value in assay [2] was “in vitro activity”.

For the molecule `CC1CCC2C(C)C(OC(=O)CCC(=O)O)OC3OC4(C)CCC1C32O4` (centres unmarked) [deoxygenated artesunate], in assay [2], the “in vitro activity against L. infantum life stage forms (promastigote and amastigote)” value is “in vitro activity”.

For `CC1CCC2C(C)C(O)OC3OC4(C)CCC1C32O4` (centres unmarked) [deoxygenated dihydroartemisinin], the “in vitro activity against L. infantum life stage forms (promastigote and amastigote)” value in assay [2] is “in vitro activity”.

The values above are taken from patent EP4178570B1, “VETERINARY COMPOSITIONS FOR PREVENTING AND/OR TREATING LEISHMANIOSIS” (priority 2020, dated 2022).
